What all share (format): biochemical
One experiment has as its target MMP-13CD (Homo sapiens, UniProt P45452). The experiment is described as follows: Fluorigenic peptide-1 substrate based assay with and without acetohydroxamic acid, MMP-13CD. The note with it: for IC50: MMP-13CD, FP1 substrate. Here is the method:
50 mM HEPES buffer (pH 7.0)
2% DMSO (with or without inhibitor test compound)
Alternatively, an endpoint read can also be used to determine reaction velocity provided the initial fluorescence of the solution, as recorded before addition of enzyme, is subtracted from the final fluorescence of the reaction mixture. […] This determination was done for experiments done in the presence, and experiments done in the absence, of acetohydroxamic acid. Data were fit to the equation: […]

Another experiment has as its target MMP-9 (Homo sapiens, UniProt P14780). The experiment is described as follows: Fluorigenic peptide-1 substrate based assay with and without acetohydroxamic acid, MMP-9. The note with it: MMP 9FL, FP1 substrate.
The target in experiment [1] is T1, MMP-2 (Homo sapiens, UniProt P08253).
T1 sequence (P08253 110-660): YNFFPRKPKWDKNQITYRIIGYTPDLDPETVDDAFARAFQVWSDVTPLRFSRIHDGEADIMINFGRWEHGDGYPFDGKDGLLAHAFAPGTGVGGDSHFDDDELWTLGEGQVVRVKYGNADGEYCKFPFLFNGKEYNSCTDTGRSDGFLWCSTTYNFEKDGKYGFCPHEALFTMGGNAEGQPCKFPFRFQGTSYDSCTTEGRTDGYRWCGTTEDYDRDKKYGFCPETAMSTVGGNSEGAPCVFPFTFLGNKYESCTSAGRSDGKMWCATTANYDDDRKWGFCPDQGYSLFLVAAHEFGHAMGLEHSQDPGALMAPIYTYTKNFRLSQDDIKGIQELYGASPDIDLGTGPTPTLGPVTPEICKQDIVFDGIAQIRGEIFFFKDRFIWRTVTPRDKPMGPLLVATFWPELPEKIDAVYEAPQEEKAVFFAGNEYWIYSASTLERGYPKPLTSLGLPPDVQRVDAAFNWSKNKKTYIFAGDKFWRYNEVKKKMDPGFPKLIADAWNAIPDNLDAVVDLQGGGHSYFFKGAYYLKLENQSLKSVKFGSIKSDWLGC
The experiment is described as follows: Steady-state kinetics of the mechanism of inhibition of MMP-2 (FIG. 1). The note with it: 6 concentrations from 0 nanomolar to 600 nanomolar, 1/V0 versus 1/[S].
Description: FIG. 1 is a graph that plots 1 over the initial velocity VO, which is the initial rate of product formation in a steady state kinetics assay, on the Y-axis versus 1 over concentration of substrate [S] used in the assay on the X-axis for inhibition of MMP-2 with N-[(3-phenylisoxazol-5-ylmethyl)-aminothiocarbonyl]-benzamide at 6 concentrations of from 0 nanomolar to 600 nanomolar.
In FIG. 1, 1 over the initial velocity VO, which is the initial rate of product formation in a steady state kinetics assay, is plotted on the Y-axis versus 1 over concentration of substrate [S] used in the assay on the X-axis for inhibition of MMP-2 with N-[(3-phenylisoxazol-5-ylmethyl)-aminothiocarbonyl]-benzamide at 6 concentrations of from 0 nanomolar to 600 nanomolar.

Experiment [2] deals with T1, MMP-2. As to the kind of experiment: Fluorigenic peptide-1 substrate based assay with and without acetohydroxamic acid, MMP-2. The note with it: MMP 2FL, FP1 substrate.
Setting [3] is: 0 mM acetohydroxamic acid, read-out: Without AcNHOH IC50.
Where [4] appears, read: 15 mM acetohydroxamic acid (1 Kd), read-out: With AcNHOH IC50.
Setting [5] is: about 1 Kd of acetohydroxamic acid, read-out: With AcNHOH IC50.
[6] abbreviates: no acetohydroxamic acid, read-out: Without AcNHOH IC50.

The structures appear in SMILES notation. Read-outs that look alike come from different tables or passages of the source.

By IC50 is commonly meant the concentration needed to halve the response being measured. Usually Kd stands for a measure of binding affinity in units of concentration. A low value points to a tighter complex.

MMP-9, sequence (P14780 94-707, species assumed): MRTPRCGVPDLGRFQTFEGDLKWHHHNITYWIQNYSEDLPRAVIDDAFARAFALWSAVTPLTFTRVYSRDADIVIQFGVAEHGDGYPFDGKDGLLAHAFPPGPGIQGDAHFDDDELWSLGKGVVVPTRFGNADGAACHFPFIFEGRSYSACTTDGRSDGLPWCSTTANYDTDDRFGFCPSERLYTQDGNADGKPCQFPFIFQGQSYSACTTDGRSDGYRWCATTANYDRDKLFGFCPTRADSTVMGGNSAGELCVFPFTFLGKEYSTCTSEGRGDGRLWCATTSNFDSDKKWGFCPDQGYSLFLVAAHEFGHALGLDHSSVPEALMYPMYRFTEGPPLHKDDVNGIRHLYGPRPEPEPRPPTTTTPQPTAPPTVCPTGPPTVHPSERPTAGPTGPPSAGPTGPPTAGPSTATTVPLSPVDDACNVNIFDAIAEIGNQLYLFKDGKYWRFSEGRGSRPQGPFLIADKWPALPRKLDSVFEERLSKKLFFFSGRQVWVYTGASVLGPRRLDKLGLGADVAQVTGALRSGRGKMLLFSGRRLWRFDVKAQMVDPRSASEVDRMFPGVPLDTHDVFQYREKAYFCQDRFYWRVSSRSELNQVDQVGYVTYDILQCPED

`Nc1ccc(-c2ccc(S(N)(=O)=O)cc2)cc1` [Entry 1]: the IC50 on MMP-13CD (setting [3]) was determined as 34 µM; on MMP-13CD (setting [4]), 16 µM.
The corresponding values for `NS(=O)(=O)c1ccc(-c2ccc([N+](=O)O)cc2)cc1` [Entry 2] are 84 µM and 3.1 µM.
The corresponding values for `COc1ccc(NC(=O)Nc2ccc3nc(C)cc(N)c3c2)cc1` [Entry 3] are 126 µM and 71 µM.
The corresponding values for `Cc1cc(O)nc(SCc2ccc(Cl)cc2)n1` [Entry 4] are 64 µM and 4.7 µM.
For `Cc1c(-c2ccc(-n3ccnc3)cc2)[nH][nH]c1=O` [Entry 5], the IC50 at MMP-13CD (setting [3]) turned out to be 9.5 µM; on MMP-13CD (setting [4]), 11 µM.
The corresponding values for `CCOC(=O)/C=C/c1ccc(-n2ccnc2)cc1` [Entry 6] are 17 µM and 14 µM.
The corresponding values for `COc1ccc(C(=O)NCc2cccnc2)cc1C(=O)NCc1cccnc1` [Entry 7] are 27 µM and 11 µM.
On to `O=C(NC(=S)NCc1cc(-c2ccccc2)no1)c1ccccc1` [N-[(3-phenylisoxazol-5-ylmethyl)-aminothiocarbonyl]-benzamide], for which the IC50 at MMP-9 (setting [5]) came out at 1.2 µM; on MMP-9 (setting [6]), 3.1 µM; at MMP-2 [2] (setting [5]) it was 0.09 µM; at MMP-2 [2] (setting [6]), 0.9 µM. For the same compound, at MMP-2 [1], the “Mechanism of inhibition of MMP-2 by steady-state kinetics” value is given as “uncompetitive inhibitor”.
Regarding `CC(=O)NO` [acetohydroxamic acid, reference compound], the dissociation constant Kd on MMP-13CD came to 15000 µM.
